Test results taken from patent US6365621B1, “Remedies or preventives for intractable epilepsy” (Pharmaceutical Co., Ltd., priority 1998, dated 2002).
“And” between values parts separate entries of the source, which are not always exact repeats. Equal values may be shown once.

How the values were obtained:
[1] = system: fully amygdala kindled rats; assay: Seizures in fully amygdala kindled rats (GST stimulation); assay type: in vivo, rat; details: for Change of ADD (%): afterdischarge duration before administration = 100; for Change of MSD (%): motor seizure duration before administration = 100
Method: [Method for preparing a kindling model] Male Wistar rats (weight: 200-250 g, Tokyo Jikken Dobutsu) were used, and pentobarbital (50 mg/kg, Dinabot) and ketamine (50 mg/kg, Sankyo Co., Ltd.) were used as anesthetic agents.
A dose-response of nefiracetam (15-180 mg/kg) with respect to a kindling seizure induced GTS stimulation intensity was evaluated in terms of the following parameters: seizure stage, and afterdischarge duration at the sitimulated amygdala and motor seizure duration.
In accordance with the method of Racine et al. (Modification of seizure activity by electrical stimulation: II motor seizure. Electroencephalography Clin. Neurophysiol. 1972. 32: 281-294), seizures were classified into the following five stages: stage 1 (chewing); stage 2 (head nodding); stage 3 (forelimb clonus); stage 4 (rearing); and stage 5 (rearing and falling).
Motor seizure duration (seconds) was represented by the total duration of stages 3 through 5. Stage 1 or Stage 2 is a seizure symptom of the limbic system, and Stage 3, 4, or 5 is regarded a motor seizure (Sato, M., Racine, R. J., McIntyre, D. C., Kindling: basic mechanisms and clinical validity, Electroencephalography Clin. Neurophysiol. 1990, 76: 459-472).
Afterdischarge duration (seconds) was recorded by use of an electrode for recording, and was represented by the seizure-discharge duration shown in a electroencephalogram, which is induced by a kindling stimulation. Nefiracetam was dissolved into a solvent (0.5% carboxymethyl cellulose) and the solution was administered orally 90 minutes before GST stimulation, wherein the amount of administered nefiracetam is classified into several stages within a range of 15-180 mg/kg.
[Method] The rats used in this Example were of the same type in terms of the source of purchase, body weight, and age (week). For each rat, in the same manner as in of Example 1, there were performed anesthetization, setting of an electrode on the amygdala, fixation of the electrode at the cranial bone, and a kindling stimulation (50 Hz, sine wave).
For non-administered rats and nefiracetam-administered rats (120 mg/kg), the effect of the administration was evaluated when GST stimulation intensity was increased by a factor of two (GST 2) or three (GST 3). The effect of 120 mg/kg of nefiracetam on kindling seizures induced by one-fold, two-fold, and three-fold GTS stimulation was evaluated in terms of the following parameters: seizure stage, motor seizure duration, and afterdischarge duration.

[2] = system: kainate-induced cortical focal seizures; assay: Kainate-induced cortical focal seizures: behavior and electroencephalogram; assay type: in vivo, rat; details: 100 mg/kg i.v. On Decrease of Spikes: key: (+): effective; (−): ineffective. On Sedative action: key: (+): effective; (−): ineffective. On Spikes after 24 hours: key: (+): effective; (−): ineffective.
Method: [Method for measuring an electrophysiological effect] A stereotaxic operation was performed through the same manner as described in I-1 by use of Wistar male rats. A cannula was inserted in the left sensorimotor area for injection of kainic acid, and the cannula was simultaneously used as an electrode. A bipolar depth electrode was set in the bilateral caudatum, and screw electrodes were set in the right sensorimotor area, frontal sinus, and occipital bone. Seven days after operation, 1 μL of kainic acid solution (2 mg/mL) was injected so as to induce cortical focal seizures. After elapse of 1-2 hours from the injection of kainic acid, the same nefiracetam solution as described in I-1 (100 mg/kg) was intravenously injected, and behavior and electroencephalograms were recorded by use of a video electroencephalogram recorder. Suppression of seizures just after the administration of nefiracetam, changes in electroencephalograms, occurrence of seizures thereafter, and electroencephalogram observations were compared with those of the control group.

**Q.** With `Cc1cccc(C)c1NC(=O)CN1CCCC1=O` [nefiracetam, N-(2,6-dimethylphenyl)-2-(2-oxo-1-pyrrolidinyl)acetamide] as the compound, how does the “Change of stage (%)” value ([1]; 15 mg/kg p.o. 90 min before GST stimulation, seizure stage before administration = 100) read?
**A.** The value was 80.0%.

**Q.** And the “Change of ADD (%)” value ([1]; 15 mg/kg p.o.)?
**A.** Its value is 81.7%.

**Q.** And the “Change of stage (%)” value ([1]; 30 mg/kg p.o. 90 min before GST stimulation, seizure stage before administration = 100)?
**A.** The value was 100.0%.

**Q.** And the “Change of ADD (%)” value ([1]; 30 mg/kg p.o.)?
**A.** The value was 99.9%.

**Q.** What about the “Change of stage (%)” value ([1]; 60 mg/kg p.o. 90 min before GST stimulation, seizure stage before administration = 100) of the same compound?
**A.** Its value is 80.0%.

**Q.** What about the “Change of ADD (%)” value ([1]; 60 mg/kg p.o.) of the same compound?
**A.** The value was 83.9%.

**Q.** And the “Change of stage (%)” value ([1]; 90 mg/kg p.o. 90 min before GST stimulation, seizure stage before administration = 100)?
**A.** Its value is 76.0%.

**Q.** What about the “Change of ADD (%)” value ([1]; 90 mg/kg p.o.) of the same compound?
**A.** The value was 82.3%.

**Q.** And the “Change of stage (%)” value ([1]; 120 mg/kg p.o. 90 min before GST stimulation, seizure stage before administration = 100)?
**A.** The value was 13.3%.

**Q.** And the “Change of ADD (%)” value ([1]; 120 mg/kg p.o.)?
**A.** The value was 25.0%.

**Q.** What about the “Effect on afterdischarge duration” value ([1]; 120 mg/kg, 3-times-GST stimulation intensity) of the same compound?
**A.** Its value is “the afterdischarge duration was restored”.

**Q.** And the “Change of stage (%)” value ([1]; 120 mg/kg, GST intensity 1-fold, before administration = 100)?
**A.** The value was 16.7%.

**Q.** And the “Change of MSD (%)” value ([1]; 120 mg/kg, GST intensity 1-fold)?
**A.** The value was 11.1%.

**Q.** And the “Change of stage (%)” value ([1]; 120 mg/kg, GST intensity 2-fold, before administration = 100)?
**A.** The value was 14.7%.

**Q.** And the “Change of MSD (%)” value ([1]; 120 mg/kg, GST intensity 2-fold)?
**A.** Its value is 15.2%.

**Q.** What about the “Change of stage (%)” value ([1]; 120 mg/kg, GST intensity 3-fold, before administration = 100) of the same compound?
**A.** Its value is 52.0%.

**Q.** What about the “Change of MSD (%)” value ([1]; 120 mg/kg, GST intensity 3-fold) of the same compound?
**A.** The value was 43.8%.

**Q.** And the “Effect on afterdischarge duration” value ([1]; 120 mg/kg, one-fold GST stimulation intensity)?
**A.** Its value is “significant and strong inhibition”.

**Q.** And the “Effect on afterdischarge duration” value ([1]; 120 mg/kg, two-fold GST stimulation intensity)?
**A.** Its value is “an effect on afterdischarge duration was reduced”.

**Q.** And the “Change of stage (%)” value ([1]; 180 mg/kg p.o. 90 min before GST stimulation, seizure stage before administration = 100)?
**A.** Its value is 36.0%.

**Q.** What about the “Change of ADD (%)” value ([1]; 180 mg/kg p.o.) of the same compound?
**A.** Its value is 24.8%.

**Q.** What about the “Effect on seizure stage, motor seizure duration and afterdischarge duration” value ([1]; 15-180 mg/kg p.o., GST stimulation) of the same compound?
**A.** The value was “dose-dependent inhibition”.

**Q.** And the “ED50 (effect on seizure stage)” value ([1]; regression curve by least-squares method, p.o., fully kindled rats)?
**A.** Its value is 114 mg/kg.

**Q.** And the Seizures after awakening [2]?
**A.** Its Seizures after awakening is “seizures did not appear after awakening”.

**Q.** What about the “Seizures after intravenous injection during status epilepticus” value [2] of the same compound?
**A.** Its value is “the seizures disappeared immediately”.

**Q.** What about the “Time to awakening from sedation” value [2] of the same compound?
**A.** The value was ≤ 60 min.

**Q.** And the “Decrease of Spikes” value ([2]; individual rats)?
**A.** Its value is “+”.

**Q.** And the Disappear of seizures ([2]; individual rats)?
**A.** Its Disappear of seizures is “+”.

**Q.** What about the Reappear of seizures ([2]; individual rats) of the same compound?
**A.** The Reappear of seizures was “−”.

**Q.** And the Sedative action ([2]; individual rats)?
**A.** Its Sedative action is “+”.

**Q.** What about the “Spikes after 24 hours” value ([2]; individual rats) of the same compound?
**A.** Its value is “− and + (2×)”.
